These results are taken from ChEMBL document CHEMBL1146267, “2,6-Disubstituted N-arylsulfonyl piperidines as gamma-secretase inhibitors” (Bioorg Med Chem Lett, 2007).

The assay deals with Gamma-secretase. Description: Inhibition of gamma secretase-mediated amyloid-beta peptid […]. The class given is protein-complex assay, Homo sapiens.

`O=C(NCCCn1ccnc1)OCC1CCc2ccc(F)cc2N1S(=O)(=O)c1ccc(Cl)cc1` (configuration not stated): 270 nM corresponded to half-maximal inhibition (IC50).
With `CC1CCC2CCCCC2N1S(=O)(=O)c1ccc(Cl)cc1` (configuration not stated), the IC50 (commonly the concentration that inhibits the measured activity by half) is 2500 nM. This IC50 lies about 9.3-fold higher than the previous one.
`O=C(OCC1CCc2ccc(F)cc2N1S(=O)(=O)c1ccc(Cl)cc1)N1CCCC1` (configuration not stated) yielded an IC50 of 680 nM.
Regarding `O=C(NCCCn1ccnc1)OCC1CCCCN1S(=O)(=O)c1ccc(Cl)cc1` (configuration not stated), the IC50 is 15400 nM.
As for `O=C(OC[C@H]1CCC[C@@H](c2cccc(F)c2)N1S(=O)(=O)c1ccc(Cl)cc1)N1CCC(N2CCCCC2)CC1` [listing 1 of 2 here], the figure is 3 nM; as for `O=C(OC[C@H]1CCC[C@@H](c2cccc(F)c2)N1S(=O)(=O)c1ccc(Cl)cc1)N1CCC(N2CCCCC2)CC1` [listing 2 of 2 here], 83 nM.
For the molecule `CC1CN(C2CCCCC2)CCN1C(=O)OC[C@H]1CCC[C@@H](c2ccccc2)N1S(=O)(=O)c1ccc(Cl)cc1` (mixture of isomers), the IC50 is 71 nM.
For the molecule `CC1CN(CC2CC2)CCN1C(=O)OC[C@H]1CCC[C@@H](c2ccccc2)N1S(=O)(=O)c1ccc(Cl)cc1` (mixture of isomers), the IC50 came to 37 nM.
Regarding `CC1CN(CC2CC2)CCN1C(=O)OC[C@H]1CCC[C@@H](c2cccc(F)c2)N1S(=O)(=O)c1ccc(Cl)cc1` (mixture of isomers), the IC50 is 26 nM.
As for `CC1CC(N2CCCCC2)CCN1C(=O)OC[C@H]1CCC[C@@H](c2cccc(F)c2)N1S(=O)(=O)c1ccc(Cl)cc1` (mixture of isomers), the figure is 13 nM; as for `CC1CC(N2CCCCC2)CCN1C(=O)OC[C@H]1CCC[C@@H](c2cc(F)cc(F)c2)N1S(=O)(=O)c1ccc(Cl)cc1` (mixture of isomers), 7 nM; as for `C[C@@H]1CCC[C@H](COC(=O)N2CCC(N(C)C3CCN(C)CC3)CC2)N1S(=O)(=O)c1ccc(Cl)cc1` (racemic), 219 nM.
On to `C[C@@H]1CCC[C@H](COC(=O)N2CCC(N3CCCCC3)CC2)N1S(=O)(=O)c1ccc(Cl)cc1` (racemic), for which inhibition was half-maximal at 76 nM (IC50).
On to `CC[C@@H]1CCC[C@H](COC(=O)N2CCC(N(C)C3CCN(C)CC3)CC2)N1S(=O)(=O)c1ccc(Cl)cc1` (racemic), for which the IC50 came out at 159 nM.
For `O=C(OC[C@H]1CCC[C@@H](Cc2ccccc2)N1S(=O)(=O)c1ccc(Cl)cc1)N1CCC(N2CCCCC2)CC1` (racemic), the IC50 was 4770 nM.
As for `O=C(OC[C@H]1CCC[C@@H](c2ccccc2F)N1S(=O)(=O)c1ccc(Cl)cc1)N1CCN(C2CCCCC2)CC1` (racemic), the figure is 17 nM; as for `O=C(OC[C@H]1CCC[C@@H](c2cccc(F)c2)N1S(=O)(=O)c1ccc(Cl)cc1)N1CCN(C2CCCCC2)CC1` (racemic), 38 nM.
As for `O=C(OC[C@H]1CCC[C@@H](c2cccc(F)c2)N1S(=O)(=O)c1ccc(Cl)cc1)N1CCC(N2CCCCC2)CC1` (racemic), the figure is 11 nM; as for `O=C(OC[C@H]1CCC[C@@H](c2cc(F)ccc2F)N1S(=O)(=O)c1ccc(Cl)cc1)N1CCN(C2CCCCC2)CC1` (racemic), 28 nM; as for `O=C(OC[C@H]1CCC[C@@H](c2cc(F)cc(F)c2)N1S(=O)(=O)c1ccc(Cl)cc1)N1CCN(C2CCCCC2)CC1` (racemic), 36 nM.
As for `O=C(OC[C@H]1CCC[C@@H](c2cc(F)cc(F)c2)N1S(=O)(=O)c1ccc(Cl)cc1)N1CCC(N2CCCCC2)CC1` (racemic), the IC50 came out at 4 nM.
`O=C(OC[C@H]1CCC[C@@H](c2ccc(F)c(F)c2)N1S(=O)(=O)c1ccc(Cl)cc1)N1CCC(N2CCCCC2)CC1` (racemic) registered an IC50 of 8 nM.
The molecule `CN1CCC(N(C)C2CCN(C(=O)OC[C@H]3CCC[C@@H](Cc4ccccc4)N3S(=O)(=O)c3ccc(Cl)cc3)CC2)CC1` (racemic) came in with an IC50 of 12300 nM.
For `O=C(OC[C@H]1CCC[C@@H](c2cc(F)ccc2F)N1S(=O)(=O)c1ccc(Cl)cc1)N1CCC(N2CCCCC2)CC1` (racemic) the value was 10 nM.
Turning to `O=C(OC[C@H]1CCC[C@@H](c2ccc(F)c(F)c2)N1S(=O)(=O)c1ccc(Cl)cc1)N1CCN(C2CCCCC2)CC1` (racemic), the IC50 was 26 nM.
As for `O=C(OC[C@H]1CCC[C@@H](c2ccccc2)N1S(=O)(=O)c1ccc(Cl)cc1)N1CCN(C2CCCCC2)CC1` (racemic), the IC50 came to 67 nM. This IC50 lies about 2.6-fold higher than the previous one.
Molecule `O=C(OC[C@H]1CCC[C@@H](c2ccccc2F)N1S(=O)(=O)c1ccc(Cl)cc1)N1CCC(N2CCCCC2)CC1` (racemic) registered an IC50 of 8 nM.
The molecule `O=C(OC[C@H]1CCC[C@@H](c2ccccc2)N1S(=O)(=O)c1ccc(Cl)cc1)N1CCC(N2CCCCC2)CC1` (racemic) gave an IC50 of 16 nM.
For `C[C@@H]1CCC[C@@H](COC(=O)NCCCn2ccnc2)N1S(=O)(=O)c1ccc(Cl)cc1` (relative stereo), half-maximal inhibition (IC50) was put at 6420 nM.
In turn, `C[C@@H]1CCC[C@H](COC(=O)NCCCn2ccnc2)N1S(=O)(=O)c1ccc(Cl)cc1` (relative stereo) gave an IC50 of 570 nM.
For `C[C@@H]1CCC[C@H](COC(=O)N2CCCC2)N1S(=O)(=O)c1ccc(Cl)cc1` (relative stereo) the value was 1970 nM; for `C[C@@H]1CCC[C@@H](COC(=O)N2CCCC2)N1S(=O)(=O)c1ccc(Cl)cc1` (relative stereo), 10600 nM.
